# Measured values: patent US20230355506A1, “ACTIVE INGREDIENT COMPLEX FOR COSMETIC PREPARATIONS” (LA PRAIRIE GROUP AG, priority 2022, published 2023)
# Test system: collagen I A2
# Experiment: ELISA for collagen1A2 in ECM isolated from cultured hypodermis explants after 10 days of treatment
# Type: cell-based, human
# Details: additions (extract solvents/additives) alone
# Experimental: The hypodermis was prepared and weighed out into approximately 200 mg pieces. The tissue was cultured in a submersed state in defined and serum-free hypodermis tissue culture medium (CB-EM-HYP) in an actively humidified biomedical incubator (Memmert, Germany) at 37° C. and 5% CO2.
# Overnight cultivation was followed by substitution with fresh tissue culture medium. Explants were cultivated either in the presence or absence of test samples.
# Over a period of 10 days, the medium was replaced daily with freshly supplemented test samples or with normal media without test samples.
# After 10 days of treatment, a portion of the tissue samples was processed for the extraction of ECM proteins.
# Isolated ECM was subjected to a protein estimation in accordance with the BCA method (Bicinchoninic Acid) (Sigma Aldrich), and ELISAs (Biotechne) corresponding to the antigen collagen1A2 were performed according to the manufacturer's protocol using the same amounts of proteins as were estimated from the BCA assay. A sensitive filter-based microplate reader (Accuris, USA) was used to perform readout.
# The following test samples were investigated: • A. Glycolic caviar extract containing approx. 6% fish egg material, 10% water and propylene glycol ad 100. […] Lipophilic caviar extract containing 40% fish egg material, 0.02% tocopherol, 1% by weight phenoxyethanol and triglycerides ad 100. This extract was obtained from an extraction with triglycerides and phenoxyethanol of a homogenizate from fish eggs of Acipenser baerii. […] The proportion of sodium mannose 6-phosphate is 2.5% by weight. The proportion of mannose is 2.5% by weight.
row,SMILES,Increase in the expression of collagen I by the additions alone
1,O=C(O)[C@@H](O)[C@H](O)[C@H](O)[C@@H](O)C(=O)O [galactaric acid],do not show any increase
2,OCC(O)CO [glycerol],do not show any increase
3,CC(O)CO (stereo not shown) [propylene glycol],do not show any increase
4,O [water],do not show any increase
